Assay results published in patent US7084145B2, “Triazole compounds useful in therapy” (Pfizer Inc., priority 2002, dated 2006).

Legend:
human V1A receptor = target: T1, human V1A receptor (Homo sapiens, UniProt P37288); assay: V1A filter binding assay ([3H]-AVP binding to CHO-hV1A membranes); settings: screen 1.0, [3H]-AVP displacement
T1 construct: host or cells: CHO cells (CHO-hV1A), membrane preparation
Procedure: 1.0 V1A Filter Binding Assay
Receptor binding assays were performed on cellular membranes prepared from CHO cells stably expressing the human V1A receptor, (CHO-hV1A). The CHO-hV1A cell line was kindly provided under a licensing agreement by Marc Thibonnier, Dept. of Medicine, Case Western Reserve University School of Medicine, Cleveland, Ohio. CHO-hV1A cells were routinely maintained at 37° C. in humidified atmosphere with 5% CO2 in DMEM/Hams F12 nutrient mix supplemented with 10% fetal bovine serum, 2 mM L-glutamine, 15 mM HEPES and 400 μg/ml G418. For bulk production of cell pellets, adherent CHO-hV1A cells were grown to confluency of 90–100% in 850 cm^2 roller bottles containing a medium of DMEM/Hams F12 Nutrient Mix supplemented with 10% fetal bovine serum, 2 mM L-glutamine and 15 mM HEPES. Confluent CHO-hV1A cells were washed with phosphate-buffered saline (PBS), harvested into ice cold PBS and centrifuged at 1,000 rpm. Cell pellets were stored at −80° C. until use. Cell pellets were thawed on ice and homogenised in membrane preparation buffer consisting of 50 mM Tris-HCl, pH 7.4, 5 mM MgCl2 and supplemented with a protease inhibitor cocktail, (Roche). The cell homogenate was centrifuged at 1000 rpm, 10 min, 4° C. and the supernatant was removed and stored on ice. The remaining pellet was homogenised and centrifuged as before. The supernatants were pooled and centrifuged at 25,000×g for 30 min at 4° C. The pellet was resuspended in freezing buffer consisting of 50 mM Tris-HCl, pH 7.4, 5 mM MgCl2 and 20% glycerol and stored in small aliquots at −80° C. until use. Protein concentration was determined using Bradford reagent and BSA as a standard.
Protein linearity followed by saturation binding studies were performed on each new batch of membrane. Membrane concentration was chosen that gave specific binding on the linear portion of the curve.
Compounds were tested for their effects on [^3H]-AVP binding to CHO-hV1A membranes, (^3H-AVP; specific activity 65.5 Ci/mmol; NEN Life Sciences). Compounds were solubilised in dimethylsulfoxide (DMSO) and diluted to working concentration of 10% DMSO with assay buffer containing 50 mM Tris-HCL pH 7.4, 5 mM MgCl2 and 0.05% BSA. […] The plates were sealed and counted on a TopCount Microplate Scintillation Counter (Packard Instruments). […] The radioligand binding data was analysed using a four parameter logistic equation with the min forced to 0%. […] Specific binding was calculated by subtracting the mean NSB cpm from the mean Total cpm. […] The inhibitory dissociation constant (Ki) was calculated using the Cheng-Prusoff equation: Ki=IC50/(1+[L]/Kd) where [L] is the concentration of ligand present in the well and Kd is the dissociation constant of the radioligand obtained from Scatchard plot analysis.

T1 sequence (P37288 whole entry): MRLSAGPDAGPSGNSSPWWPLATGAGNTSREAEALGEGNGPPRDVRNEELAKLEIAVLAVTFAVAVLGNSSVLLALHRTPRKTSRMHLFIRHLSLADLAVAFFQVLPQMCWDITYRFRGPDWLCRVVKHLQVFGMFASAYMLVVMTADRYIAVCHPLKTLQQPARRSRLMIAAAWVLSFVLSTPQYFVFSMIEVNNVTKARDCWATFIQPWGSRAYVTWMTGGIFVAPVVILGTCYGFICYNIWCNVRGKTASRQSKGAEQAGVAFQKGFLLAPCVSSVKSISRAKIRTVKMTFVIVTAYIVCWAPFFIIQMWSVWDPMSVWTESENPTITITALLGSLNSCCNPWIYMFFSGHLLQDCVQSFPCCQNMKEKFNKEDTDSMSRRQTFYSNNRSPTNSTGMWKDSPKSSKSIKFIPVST

Ki (human V1A receptor)	melting point	SMILES
4.67 nM	–	c1ccc(COCc2nnc(C3CCN(c4ccccn4)CC3)n2Cc2ccccc2)cc1 [Example 17, 4-(4-Benzyl-5-benzyloxymethyl-4H-[1,2,4]triazol-3-yl)-3,4,5,6-tetrahydro-2H-[1,2′]bipyridinyl]
–	191.1 °C	Cc1nnc(C2CCN(c3cnccn3)CC2)n1Cc1ccccc1 [Example 23, 2-[4-(4-Benzyl-5-methyl-4H-[1,2,4]triazol-3-yl)-piperidin-1-yl]-pyrazine]
12.1 nM	–	c1ccc(Cn2c(CN3CCCCC3)nnc2C2CCN(c3ccccn3)CC2)cc1 [Example 24, 4-(4-Benzyl-5-piperidin-1-ylmethyl-4H-[1,2,4]triazol-3-yl)-3,4,5,6-tetrahydro-2H-[1,2′]bipyridinyl]

Further lines, the compound ahead of its results:

SMILES	Ki (human V1A receptor)	melting point
C[C@@H](c1ccccc1)n1c(CN2CCCCC2)nnc1C1CCN(c2ccccn2)CC1 [Example 25, (S)-4-[4-(1-Phenyl-ethyl)-5-piperidin-1-ylmethyl-4H-[1,2,4]triazol-3-yl]-3,4,5,6-tetrahydro-2H-[1,2′]bipyridinyl]	16.1 nM	–
COC1CCN(Cc2nnc(C3CCN(c4ccccn4)CC3)n2Cc2ccccc2)CC1 [Example 26, 4-[4-Benzyl-5-(4-methoxy-piperidin-1-ylmethyl)-4H-[1,2,4]triazol-3-yl]-3,4,5,6-tetrahydro-2H-[1,2′]bipyridinyl]	4.5 nM	–
